Source: article PMC9428149, “Tackling recalcitrant Pseudomonas aeruginosa infections in critical illness via anti-virulence monotherapy” (Nature Communications, 2022)
Where two headings read alike, the source gives them in different places.

Legend:
[1] = system: pqsA promoter (PA14 PpqsA-GFPASV); test: pqsA-GFP reporter expression; format: cell-based, Pseudomonas aeruginosa; conditions: PA14 PpqsA-GFPASV; 50µM per b210 (method b76 says 10 µM)
Description: The expression levels of pqsA, which is representative of the pqsABCDE operon transcription, were monitored in the presence of the MvfR inhibitors using PA14 cells containing the PpqsA-GFPASV, a reporter construct of the pqsA promoter fused to a short half-life GFP gene in, such that quantitative quenching of fluorescence corresponds to pqsA promoter repression[22],[32],[48]. […] GFP fluorescence levels were measured at λex = 485 nm/λem = 535 nm after 10 seconds of shaking every 15 min up to 12 h. The IC50 of PpqsA-GFP expression levels was performed as above using the same 13 different concentrations (0.0122–50 μM) for each of the 13 compounds tested.

MvfR protein (MvfRC87) = target: T1, MvfR protein (MvfRC87) (Pseudomonas aeruginosa, UniProt Q9I4X0); format: binding; conditions: SPR
T1 construct: The MvfRC87 protein purified as in Xiao et. al., 2006; made in house
T1 sequence (Q9I4X0 87-332): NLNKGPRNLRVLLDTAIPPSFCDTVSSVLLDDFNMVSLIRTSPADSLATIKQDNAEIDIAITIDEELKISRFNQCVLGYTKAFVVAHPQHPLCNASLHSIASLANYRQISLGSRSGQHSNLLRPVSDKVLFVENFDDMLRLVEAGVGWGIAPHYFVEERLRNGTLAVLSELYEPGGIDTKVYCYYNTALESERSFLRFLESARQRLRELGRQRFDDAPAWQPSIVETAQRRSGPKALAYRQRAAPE
Description: The selected compounds were tested for their ability to bind to MvfR. Target validation was carried out by using surface plasmon resonance (SPR). The MvfRC87 protein purified as in Xiao et. al., 2006[33] was covalently immobilized on a CM7 Series S sensor chip using an amine coupling reagent kit (GE Healthcare) at the range level of 3000 to 5000 response units (RU). RU was analyzed by Biacore T200 evaluation software 2.0 (GE Healthcare). The relative response units (RUs) 5 seconds before the end of the association were extracted from the double-reference-corrected sensor grams at different concentrations. These responses were plotted against their respective concentrations for MvfR inhibitor alone and in the presence of native MvfR ligand PQS and compared to the calculated responses for the mixture expected for different binding sites.

[2] = system: pyocyanin production in PA14; test: Pyocyanin production assay; conditions: PA14; 50µM of each inhibitor (method says 10 μM); vs vehicle
[3] = system: MvfR-regulated small molecules in PA14; test: Production of HAQs, 2-AA, DHQ and AA in PA14 cultures (LC-MS); conditions: PA14, 50µM inhibitor; for % Production AA: anthranilic acid, precursor control

N#Cc1ccc(NC(=O)CC(=O)Nc2cccc(Cl)c2)cc1 [D71]
% Production pqsA-GFP [1]: 10%
Response Unit (RU) (MvfR protein (MvfRC87); Concentration 1.00E-05 M): 31.7 RU
Response Unit (RU) (MvfR protein (MvfRC87); Concentration 1.00E-06 M): 19.5 RU
Response Unit (RU) (MvfR protein (MvfRC87); Concentration 1.00E-07 M): 5.9 RU
Response Unit (RU) (MvfR protein (MvfRC87); Concentration 1.00E-08 M): 2.4 RU
Response Unit (RU) (MvfR protein (MvfRC87); Concentration 3.16E-06 M): 26.8 RU
Response Unit (RU) (MvfR protein (MvfRC87); Concentration 3.16E-07 M): 11.4 RU
Response Unit (RU) (MvfR protein (MvfRC87); Concentration 3.16E-08 M): 3.1 RU
% Production Pyocyanin [2]: 13%
% Production 2-AA [3]: 57%
% Production DHQ [3]: 92%
% Production HHQ [3]: 106%
% Production HQNO [3]: 127%
% Production PQS [3]: 105%
% Production AA [3]: 207%

Cc1cc(F)ccc1NCC(=O)Nc1cccc(C#N)c1 [G1]
% Production pqsA-GFP [1]: 84%
% Production Pyocyanin [2]: 103%
% Production 2-AA [3]: 122%
% Production HHQ [3]: 100%
% Production HQNO [3]: 101%
% Production PQS [3]: 109%

Cc1cc(F)ccc1NCC(=O)Nc1ccc(C(F)(F)F)cc1 [G2]
% Production pqsA-GFP [1]: 46%
% Production Pyocyanin [2]: 61%
% Production 2-AA [3]: 68%
% Production DHQ [3]: 81%
% Production HHQ [3]: 110%
% Production HQNO [3]: 86%
% Production PQS [3]: 93%

Cc1cc(F)ccc1NCC(=O)Nc1ccccc1C#N [G3]
% Production pqsA-GFP [1]: 96%
% Production Pyocyanin [2]: 113%
% Production 2-AA [3]: 123%
% Production HHQ [3]: 99%
% Production HQNO [3]: 111%
% Production PQS [3]: 122%

Cc1cc(F)ccc1NCC(=O)Nc1ccc(F)cc1 [G4]
% Production pqsA-GFP [1]: 92%
% Production Pyocyanin [2]: 84%
% Production 2-AA [3]: 80%
% Production DHQ [3]: 85%
% Production HHQ [3]: 95%
% Production HQNO [3]: 92%
% Production PQS [3]: 88%

Cc1cc(F)ccc1OCC(=O)Nc1ccc(C#N)cc1 [G5]
% Production pqsA-GFP [1]: 98%
% Production Pyocyanin [2]: 98%
% Production 2-AA [3]: 63%
% Production DHQ [3]: 83%
% Production HHQ [3]: 114%
% Production HQNO [3]: 111%
% Production PQS [3]: 114%
% Production AA [3]: 54%

Cc1cc(F)ccc1NC(C)C(=O)Nc1ccc(C#N)cc1 (centres unmarked) [G6]
% Production pqsA-GFP [1]: 87%
% Production Pyocyanin [2]: 110%
% Production 2-AA [3]: 152%
% Production HHQ [3]: 106%
% Production HQNO [3]: 131%
% Production PQS [3]: 115%

N#Cc1ccc(NC(=O)CNc2ccc(F)cc2)cc1 [G8]
% Production pqsA-GFP [1]: 63%
% Production Pyocyanin [2]: 86%
% Production 2-AA [3]: 112%
% Production HHQ [3]: 87%
% Production HQNO [3]: 108%
% Production PQS [3]: 124%

Cc1ccccc1NCC(=O)Nc1ccc(C#N)cc1 [G9]
% Production pqsA-GFP [1]: 93%
% Production Pyocyanin [2]: 94%
% Production 2-AA [3]: 64%
% Production DHQ [3]: 59%
% Production HHQ [3]: 76%
% Production HQNO [3]: 92%
% Production PQS [3]: 124%

Cc1cc(F)ccc1NCC(=O)Nc1ccc(C#N)cc1 [M17]
% Production pqsA-GFP [1]: 32%
Response Unit (RU) (MvfR protein (MvfRC87); Concentration 1.00E-05 M): 18.8 RU
Response Unit (RU) (MvfR protein (MvfRC87); Concentration 1.00E-06 M): 6.7 RU
Response Unit (RU) (MvfR protein (MvfRC87); Concentration 1.00E-07 M): 1.3 RU
Response Unit (RU) (MvfR protein (MvfRC87); Concentration 1.00E-08 M): 0.7 RU
Response Unit (RU) (MvfR protein (MvfRC87); Concentration 3.16E-06 M): 12.6 RU
Response Unit (RU) (MvfR protein (MvfRC87); Concentration 3.16E-07 M): 3 RU
Response Unit (RU) (MvfR protein (MvfRC87); Concentration 3.16E-08 M): 0.7 RU
% Production Pyocyanin [2]: 67%
% Production 2-AA [3]: 101%
% Production DHQ [3]: 135%
% Production HHQ [3]: 3%
% Production HQNO [3]: 17%
% Production PQS [3]: 11%
% Production AA [3]: 100%
